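Each compound was tested at five concentrations against cells in 96-well plates for 48 hours. Here, GI50 denotes the concentration required for 50% inhibition of growth.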 The source made the active and inactive calls. No stated cut-off is given here; in the data, active = GI50 up to about 1.1 µM and inactive = higher.
Key:
Experiment in all cases: DTP human tumour cell line panel, 48 h
IGROV-1 = tested on: IGROV-1
SF-268 = tested on: SF-268
LOX IMVI = tested on: LOX IMVI
SF-295 = tested on: SF-295
SNB-19 = tested on: SNB-19
NCI-H460 = tested on: NCI-H460
SN12C = tested on: SN12C
UACC-62 = tested on: UACC-62
OVCAR-3 = tested on: OVCAR-3
HOP-92 = tested on: HOP-92
ACHN = tested on: ACHN
SK-MEL-5 = tested on: SK-MEL-5
NCI-H226 = tested on: NCI-H226
HCC 2998 = tested on: HCC 2998
SK-OV-3 = tested on: SK-OV-3
HL-60 = tested on: HL-60
MOLT-4 = tested on: MOLT-4

Measured: GI50

CC(C)(C)/N=C\N(C=C(c1ccccc1)c1ccccc1)C1CCCCC1
inactive: IGROV-1 50.9 µM | SF-268 41.1 µM | LOX IMVI 25.2 µM | SF-295 32 µM | SNB-19 > 100 µM | NCI-H460 38.2 µM | SN12C 43.4 µM | UACC-62 44.1 µM | OVCAR-3 29.8 µM | HOP-92 17.9 µM | ACHN 36.4 µM | SK-MEL-5 16.5 µM

Cn1cnc([N+](=O)[O-])c1Sc1nc2ccccc2[nH]1
inactive: NCI-H226 28.7 µM | HCC 2998 12.3 µM | IGROV-1 13.9 µM | SF-268 14.3 µM | LOX IMVI 22.7 µM | SF-295 > 100 µM | SNB-19 > 10 µM | NCI-H460 22.4 µM | SN12C 14.7 µM | OVCAR-3 31.9 µM | SK-OV-3 21.7 µM | HOP-92 18.5 µM | ACHN 22.8 µM | SK-MEL-5 13.1 µM | HL-60 9.29 µM | MOLT-4 6.87 µM

CC1=C(C(=O)CC(=O)C(=O)Nc2ccc(Cl)cc2C)Sc2ccccc2N1
inactive: HCC 2998 > 100 µM | IGROV-1 > 100 µM | SF-268 > 100 µM | LOX IMVI > 100 µM | SF-295 > 100 µM | SNB-19 > 100 µM | NCI-H460 > 100 µM | SN12C > 100 µM | UACC-62 > 100 µM | OVCAR-3 > 100 µM | SK-OV-3 > 100 µM | HOP-92 22.8 µM | ACHN > 100 µM | SK-MEL-5 > 100 µM | HL-60 > 100 µM | MOLT-4 > 59.6 µM

CCOC(=O)C(=O)CC(=O)C(Br)C(Br)c1ccc(Cl)cc1 (stereo not given)
inactive: HCC 2998 > 100 µM | IGROV-1 42.5 µM | SF-268 34.1 µM | LOX IMVI 29.2 µM | SF-295 > 100 µM | SNB-19 26.4 µM | NCI-H460 > 100 µM | SN12C 30.3 µM | UACC-62 46 µM | OVCAR-3 23.3 µM | SK-OV-3 > 100 µM | HOP-92 24.6 µM | ACHN 36 µM | SK-MEL-5 57.4 µM | HL-60 17.2 µM | MOLT-4 21.7 µM

CC(C)=CC(=O)CC(=O)C(=O)Nc1ccc(Cl)c(Cl)c1
inactive: NCI-H226 > 100 µM | HCC 2998 > 100 µM | IGROV-1 > 100 µM | SF-268 > 100 µM | SF-295 > 100 µM | SNB-19 > 100 µM | NCI-H460 > 100 µM | SN12C > 100 µM | UACC-62 > 100 µM | OVCAR-3 > 100 µM | SK-OV-3 > 100 µM | ACHN > 100 µM | HL-60 > 100 µM | MOLT-4 > 100 µM

CC(O)CNC(=O)C(C)Oc1ccc(OCC2CCCCC2)cc1 (stereo not given)
inactive: NCI-H226 88.5 µM | HCC 2998 > 100 µM | IGROV-1 > 100 µM | SF-268 > 100 µM | LOX IMVI > 100 µM | SF-295 84.1 µM | SNB-19 > 100 µM | NCI-H460 > 100 µM | SN12C > 100 µM | UACC-62 > 100 µM | OVCAR-3 > 100 µM | SK-OV-3 > 100 µM | ACHN > 100 µM | SK-MEL-5 > 100 µM | HL-60 > 100 µM | MOLT-4 > 100 µM

N=C(N)NS(=O)(=O)c1ccc(NC(=O)c2cccc3c(Nc4ccc(S(=O)(=O)N=C(N)N)cc4)c4ccccc4nc23)cc1
inactive: IGROV-1 70.5 µM | SF-268 62.5 µM | LOX IMVI 43.3 µM | SF-295 88.1 µM | SNB-19 > 100 µM | NCI-H460 > 100 µM | SN12C > 100 µM | UACC-62 45.8 µM | OVCAR-3 50.1 µM | SK-OV-3 72.6 µM | HOP-92 > 100 µM | ACHN 51.1 µM | SK-MEL-5 22.2 µM | HL-60 27 µM | MOLT-4 35.7 µM

CCOC(=O)CC(NC(=O)c1nc[nH]c1/N=N/N(C)C)C(=O)OCC (stereo not given)
inactive: NCI-H226 > 100 µM | HCC 2998 > 100 µM | IGROV-1 > 100 µM | SF-268 > 100 µM | LOX IMVI > 100 µM | SF-295 > 100 µM | SNB-19 > 100 µM | NCI-H460 > 100 µM | SN12C > 100 µM | UACC-62 > 100 µM | OVCAR-3 > 100 µM | SK-OV-3 > 100 µM | ACHN > 100 µM | SK-MEL-5 > 100 µM | HL-60 > 100 µM | MOLT-4 > 100 µM

COc1ccc2c(c1)[n+]([O-])c(C(=O)C/C(=N/NC(=O)c1ccccc1O)C(=O)Nc1ccc(Cl)c(C(F)(F)F)c1)c(C)[n+]2[O-]
inactive: NCI-H226 > 100 µM | HCC 2998 32.7 µM | IGROV-1 44 µM | SF-268 54.8 µM | LOX IMVI 79.8 µM | SF-295 72.3 µM | SNB-19 > 100 µM | NCI-H460 46.5 µM | SN12C 47.2 µM | UACC-62 > 100 µM | OVCAR-3 28.9 µM | SK-OV-3 > 100 µM | HOP-92 > 100 µM | ACHN 68.9 µM | SK-MEL-5 45.8 µM | MOLT-4 37.3 µM

O=C1c2ccccc2C(=O)N1CC#CCO
inactive: NCI-H226 > 100 µM | SF-268 > 100 µM | SF-295 > 100 µM | SNB-19 > 100 µM | NCI-H460 > 100 µM | SN12C > 100 µM | UACC-62 > 100 µM | OVCAR-3 > 100 µM | SK-OV-3 95.5 µM | ACHN > 100 µM | SK-MEL-5 > 100 µM | HL-60 > 100 µM | MOLT-4 > 100 µM

CC[C@H](C)N(CCN)C(=O)c1cc2ccccc2c(-c2ccccc2Cl)n1
inactive: NCI-H226 15 µM | HCC 2998 2.72 µM | IGROV-1 8.09 µM | SF-268 1.55 µM | LOX IMVI 14.3 µM | SF-295 15.1 µM | SNB-19 16.1 µM | NCI-H460 14.1 µM | SN12C 18.2 µM | UACC-62 10.8 µM | OVCAR-3 16.6 µM | ACHN 14.9 µM | HL-60 7.67 µM | MOLT-4 7.31 µM

CCN(CC)CCC(=O)NC1c2ccccc2Oc2c(C)cccc21 (stereo not given)
inactive: NCI-H226 > 100 µM | HCC 2998 > 100 µM | IGROV-1 > 100 µM | SF-268 > 100 µM | LOX IMVI > 100 µM | SNB-19 > 100 µM | NCI-H460 > 100 µM | SN12C > 100 µM | UACC-62 > 100 µM | SK-OV-3 > 100 µM | ACHN > 100 µM | SK-MEL-5 > 100 µM | HL-60 > 100 µM | MOLT-4 > 100 µM

COc1cc(OC)c(Oc2cccc(OC)c2OC)c(OC)c1
inactive: NCI-H226 > 100 µM | HCC 2998 > 100 µM | IGROV-1 > 100 µM | SF-268 > 100 µM | LOX IMVI > 100 µM | SF-295 > 100 µM | SNB-19 32.1 µM | NCI-H460 > 100 µM | SN12C > 100 µM | UACC-62 > 100 µM | OVCAR-3 > 100 µM | SK-OV-3 > 100 µM | HOP-92 > 100 µM | ACHN > 100 µM | SK-MEL-5 > 100 µM | MOLT-4 > 100 µM

O=C1OCC/C1=N/O
inactive: NCI-H226 > 100 µM | HCC 2998 > 100 µM | IGROV-1 > 100 µM | SF-268 > 100 µM | SF-295 > 100 µM | NCI-H460 > 100 µM | SN12C > 100 µM | UACC-62 > 100 µM | OVCAR-3 > 100 µM | SK-OV-3 > 100 µM | HOP-92 > 100 µM | ACHN > 100 µM | SK-MEL-5 > 100 µM | HL-60 > 100 µM | MOLT-4 > 100 µM

Cc1cccc(C(C)C)c1NC(=O)C(=O)C(C(=O)c1ccccc1F)C1OC(=O)c2ccccc21 (stereo not given)
inactive: NCI-H226 3.25 µM | HCC 2998 13.7 µM | IGROV-1 24.8 µM | SF-268 9.64 µM | LOX IMVI 13.4 µM | SNB-19 10.8 µM | NCI-H460 24.6 µM | SN12C 16.6 µM | UACC-62 10.4 µM | OVCAR-3 14.4 µM | SK-OV-3 18.9 µM | HOP-92 23.4 µM | ACHN 36.4 µM | SK-MEL-5 14.1 µM | MOLT-4 4.73 µM

CCOC(=O)/C(=C\c1ccc(N(CCC#N)CCC#N)cc1C)NC(=O)/C=C/c1ccccc1
inactive: NCI-H226 96.2 µM | HCC 2998 62.2 µM | IGROV-1 > 100 µM | SF-268 > 100 µM | LOX IMVI > 100 µM | SF-295 > 100 µM | SNB-19 > 100 µM | NCI-H460 > 100 µM | SN12C > 100 µM | UACC-62 > 100 µM | OVCAR-3 > 100 µM | SK-OV-3 > 100 µM | ACHN > 100 µM | SK-MEL-5 > 100 µM | HL-60 > 100 µM | MOLT-4 > 100 µM

Cn1ccnc1C(c1nccn1C)C(C)(C)[N+](=O)[O-]
inactive: HCC 2998 > 100 µM | SF-268 > 100 µM | LOX IMVI > 100 µM | SF-295 > 100 µM | NCI-H460 > 100 µM | SN12C > 100 µM | UACC-62 12.4 µM | OVCAR-3 > 100 µM | SK-OV-3 > 100 µM | HOP-92 > 100 µM | ACHN > 100 µM | SK-MEL-5 > 100 µM | HL-60 > 100 µM | MOLT-4 > 100 µM

Cn1cnc([N+](=O)[O-])c1Sc1n[nH]c(-c2ccc(Cl)cc2)n1
inactive: NCI-H226 14 µM | HCC 2998 21.3 µM | IGROV-1 20 µM | SF-268 22 µM | LOX IMVI 15 µM | SF-295 23.4 µM | SNB-19 20.7 µM | NCI-H460 20.8 µM | SN12C 15.5 µM | UACC-62 14.4 µM | OVCAR-3 18.1 µM | SK-OV-3 30.9 µM | HOP-92 14.5 µM | ACHN 18.7 µM | SK-MEL-5 15.7 µM | MOLT-4 12.2 µM

Reference: ChEMBL document CHEMBL1201862, “PubChem BioAssay data set” (2004)
